Like-named read-outs stand apart in the source and are kept apart here.

For assay [1], the target named is Human MET (residues 956-1390) (Homo sapiens (Human), UniProt P08581). Nature of the assay: Human Met kinase assay, HTRF KinEase (Example D-2). The conditions noted are these: read-out: c-Met IC50. In kind it is biochemical. Here is the method:
Kinase activity and compound inhibition were also investigated using the HTRF® KinEase assay (Cisbio Cat #62TKOPEB) per manufacturer's instructions. In short, compounds were delivered in 300 nL volumes at 10 different concentrations in DMSO (3% final) to empty 384-well assay plates (Corning cat #3824). A mixture of enzyme, […] biotynlated peptide substrate, and buffer in 10 μL volume was added. The assay was started upon the addition of ATP (at Km). The 10 μL reaction was incubated at room temperature. The reaction was stopped upon the addition of detection buffer containing streptavidin-XL665 ([…]) and TK antibody-Eu3+([…]). After a 60 min incubation at room temperature, the fluorescence at 665 nm and 620 nm was read on an Envision microplate reader (Perkin Elmer).
Kinase activity normalized to DMSO (100% activity) and reference compound at […] and (0% activity) was calculated using the fluorescence ratio […]. IC50 values were calculated by nonlinear regression analysis using a 4-parameter logistic curve fit in ActivityBase XE (IDBS).
Example D-2: Human MET (residues 956-1390; CarnaBio, 0.1 ng/well) was also incubated with enzymatic buffer (Cisbio) supplemented with 5 mM MgCl2, 1 mM DTT and 1 mM MnCl2. The mixture was added to the pre-plated compounds. […] The reaction was incubated at room temperature for 40 min and stopped upon the addition of SA-XL665 and TK-antibody both diluted in EDTA-containing kinase detection buffer (Cisbio). The kinase activity was calculated as stated above and the IC50 values were reported.
In general terms: In TR-FRET formats the signal depends on donor and acceptor labels being close together.

Assay [2] addresses Met (phospho-Met, HGF-stimulated PC-3 prostate cancer cells) (Homo sapiens (Human), UniProt P08581). Nature of the assay: Met autophosphorylation ELISA in PC-3 cells (Example F). In kind it is cell-based. The conditions noted are these: cellular activity, read-out: c-Met IC50. The method, boiled down:
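IC50 values derive from a 4-parameter logistic fit of phospho-Met (panTyr) sandwich ELISA signals in PC-3 lysates, scaled between DMSO and reference-inhibitor wells. Cells, starved 3 h in serum-free medium, had 1 h compound exposure (8 doses, 0.3% DMSO) before 10 min stimulation with 100 ng/mL HGF.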
Background: In an ELISA, binding on a coated surface is turned into a signal by an enzyme label.

The target in assay [3] is Mer (phospho-Mer, MERTK-transfected 293A cells) (Homo sapiens (Human), UniProt Q12866). Nature of the assay: Mer autophosphorylation ELISA in transient transfected 293A cells (Example H). Type of assay: cell-based. The conditions noted are these: cellular activity. A digest of the protocol:
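IC50 from phospho-Mer ELISA of MERTK-transfected 293A cell lysates after 1 h treatment with serially diluted compound in serum-free medium.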

Assay [4] concerns the target KDR (phospho-KDR, VEGF165-stimulated HUVEC cells) (Homo sapiens (Human), UniProt P35968). Briefly: KDR autophosphorylation ELISA in HUVEC cells (Example G). In kind it is cell-based. The conditions noted are these: cellular activity. The method, boiled down: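 Read-out: phospho-KDR in cell lysates by DuoSet IC ELISA, normalised between VEGF-stimulated DMSO wells (100%) and unstimulated wells (0%). Human endothelial cells were starved overnight in serum-free medium, exposed to compound for 1 h, and then pulsed with 100 ng/mL VEGF165 for 5 min.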

The mark [5] stands for this setting: protocol of Example D-2 (other compounds).
Setting [6] is: Met autophosphorylation ELISA in PC-3 cells.
Setting [7] is: Mer autophosphorylation ELISA in transient transfected 293A cells.
Where [8] appears, read: KDR autophosphorylation ELISA in HUVEC cells.

Chain of KDR (phospho-KDR, VEGF165-stimulated HUVEC cells) (P35968 20-1356): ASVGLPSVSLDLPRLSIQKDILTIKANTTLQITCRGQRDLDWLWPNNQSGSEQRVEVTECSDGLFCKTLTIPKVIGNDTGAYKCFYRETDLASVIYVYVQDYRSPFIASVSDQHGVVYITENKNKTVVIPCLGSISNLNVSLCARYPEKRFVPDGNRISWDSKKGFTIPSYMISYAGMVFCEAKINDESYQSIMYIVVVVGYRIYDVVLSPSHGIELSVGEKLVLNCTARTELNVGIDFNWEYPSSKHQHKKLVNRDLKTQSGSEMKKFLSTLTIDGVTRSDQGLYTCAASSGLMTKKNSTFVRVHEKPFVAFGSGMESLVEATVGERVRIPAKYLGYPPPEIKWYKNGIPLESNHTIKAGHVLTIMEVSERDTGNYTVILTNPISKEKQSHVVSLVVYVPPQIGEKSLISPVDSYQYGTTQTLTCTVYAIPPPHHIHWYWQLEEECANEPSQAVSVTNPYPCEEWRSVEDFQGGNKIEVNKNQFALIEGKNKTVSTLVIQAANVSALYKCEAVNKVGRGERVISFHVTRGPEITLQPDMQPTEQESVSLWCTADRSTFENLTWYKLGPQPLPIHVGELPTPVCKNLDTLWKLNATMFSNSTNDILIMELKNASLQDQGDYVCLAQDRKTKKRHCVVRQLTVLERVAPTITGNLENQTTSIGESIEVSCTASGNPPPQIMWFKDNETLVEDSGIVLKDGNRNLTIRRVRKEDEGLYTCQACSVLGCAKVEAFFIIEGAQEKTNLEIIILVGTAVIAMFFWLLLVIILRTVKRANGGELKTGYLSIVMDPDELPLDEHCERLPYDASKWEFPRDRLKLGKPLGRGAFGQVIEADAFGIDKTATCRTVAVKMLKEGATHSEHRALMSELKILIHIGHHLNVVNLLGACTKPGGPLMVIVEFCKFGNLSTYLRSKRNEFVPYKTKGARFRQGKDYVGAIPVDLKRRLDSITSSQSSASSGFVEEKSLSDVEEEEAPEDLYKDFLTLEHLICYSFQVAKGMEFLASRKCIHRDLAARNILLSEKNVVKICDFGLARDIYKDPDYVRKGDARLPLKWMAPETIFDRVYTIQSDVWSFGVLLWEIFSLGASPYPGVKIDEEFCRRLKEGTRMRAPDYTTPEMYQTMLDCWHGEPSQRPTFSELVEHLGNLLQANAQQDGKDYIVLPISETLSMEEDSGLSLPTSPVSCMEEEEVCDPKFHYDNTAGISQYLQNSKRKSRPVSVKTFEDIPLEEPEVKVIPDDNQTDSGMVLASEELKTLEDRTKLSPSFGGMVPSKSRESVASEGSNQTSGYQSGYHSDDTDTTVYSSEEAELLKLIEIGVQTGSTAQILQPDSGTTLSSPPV
Chain of Human MET (residues 956-1390) (P08581 956-1390): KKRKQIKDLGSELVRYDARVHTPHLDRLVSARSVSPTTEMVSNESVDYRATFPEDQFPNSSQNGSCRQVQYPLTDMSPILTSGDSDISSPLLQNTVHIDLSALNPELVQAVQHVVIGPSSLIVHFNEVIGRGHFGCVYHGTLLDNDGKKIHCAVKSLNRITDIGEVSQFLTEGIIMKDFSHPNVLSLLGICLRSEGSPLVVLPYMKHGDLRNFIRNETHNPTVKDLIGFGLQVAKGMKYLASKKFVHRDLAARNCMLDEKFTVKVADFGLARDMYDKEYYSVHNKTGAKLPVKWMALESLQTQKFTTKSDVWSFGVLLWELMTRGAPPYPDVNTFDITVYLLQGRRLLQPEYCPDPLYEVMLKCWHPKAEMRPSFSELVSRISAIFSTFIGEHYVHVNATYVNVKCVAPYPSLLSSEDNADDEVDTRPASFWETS
Chain of Met (phospho-Met, HGF-stimulated PC-3 prostate cancer cells) (P08581 25-1390): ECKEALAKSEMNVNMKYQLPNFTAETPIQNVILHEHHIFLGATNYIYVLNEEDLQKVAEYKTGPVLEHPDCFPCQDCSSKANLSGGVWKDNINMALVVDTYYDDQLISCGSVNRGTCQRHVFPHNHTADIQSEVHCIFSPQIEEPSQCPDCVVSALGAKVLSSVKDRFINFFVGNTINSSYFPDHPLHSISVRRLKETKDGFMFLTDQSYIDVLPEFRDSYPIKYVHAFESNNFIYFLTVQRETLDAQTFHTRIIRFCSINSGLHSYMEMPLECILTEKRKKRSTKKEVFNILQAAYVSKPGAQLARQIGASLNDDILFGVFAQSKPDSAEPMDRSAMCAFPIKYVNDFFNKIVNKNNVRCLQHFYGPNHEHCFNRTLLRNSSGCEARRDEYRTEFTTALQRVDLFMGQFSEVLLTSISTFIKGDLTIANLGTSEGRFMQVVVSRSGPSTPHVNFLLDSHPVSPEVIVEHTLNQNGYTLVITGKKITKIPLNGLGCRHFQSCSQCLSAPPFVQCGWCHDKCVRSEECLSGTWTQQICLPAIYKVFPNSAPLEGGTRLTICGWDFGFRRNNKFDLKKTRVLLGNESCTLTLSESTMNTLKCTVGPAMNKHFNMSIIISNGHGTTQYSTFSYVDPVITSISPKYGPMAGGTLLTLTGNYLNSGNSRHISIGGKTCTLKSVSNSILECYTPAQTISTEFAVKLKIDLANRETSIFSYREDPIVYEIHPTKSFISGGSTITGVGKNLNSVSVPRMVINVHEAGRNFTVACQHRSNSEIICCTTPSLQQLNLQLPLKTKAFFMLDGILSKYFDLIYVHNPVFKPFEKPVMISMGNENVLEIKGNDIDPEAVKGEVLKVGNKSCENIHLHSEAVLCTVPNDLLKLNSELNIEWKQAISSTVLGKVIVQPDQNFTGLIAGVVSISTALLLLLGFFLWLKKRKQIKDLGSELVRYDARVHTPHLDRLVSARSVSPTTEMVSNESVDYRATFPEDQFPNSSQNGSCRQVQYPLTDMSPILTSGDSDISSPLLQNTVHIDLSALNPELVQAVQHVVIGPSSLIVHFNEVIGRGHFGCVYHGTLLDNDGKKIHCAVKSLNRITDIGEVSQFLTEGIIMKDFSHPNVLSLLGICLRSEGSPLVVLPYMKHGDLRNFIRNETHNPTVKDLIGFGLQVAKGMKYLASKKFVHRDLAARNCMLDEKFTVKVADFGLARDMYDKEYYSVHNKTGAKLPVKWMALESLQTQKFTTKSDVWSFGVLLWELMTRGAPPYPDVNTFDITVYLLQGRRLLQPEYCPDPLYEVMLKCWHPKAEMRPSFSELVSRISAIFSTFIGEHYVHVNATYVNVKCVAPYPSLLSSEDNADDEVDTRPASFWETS
Chain of Mer (phospho-Mer, MERTK-transfected 293A cells) (Q12866 21-999): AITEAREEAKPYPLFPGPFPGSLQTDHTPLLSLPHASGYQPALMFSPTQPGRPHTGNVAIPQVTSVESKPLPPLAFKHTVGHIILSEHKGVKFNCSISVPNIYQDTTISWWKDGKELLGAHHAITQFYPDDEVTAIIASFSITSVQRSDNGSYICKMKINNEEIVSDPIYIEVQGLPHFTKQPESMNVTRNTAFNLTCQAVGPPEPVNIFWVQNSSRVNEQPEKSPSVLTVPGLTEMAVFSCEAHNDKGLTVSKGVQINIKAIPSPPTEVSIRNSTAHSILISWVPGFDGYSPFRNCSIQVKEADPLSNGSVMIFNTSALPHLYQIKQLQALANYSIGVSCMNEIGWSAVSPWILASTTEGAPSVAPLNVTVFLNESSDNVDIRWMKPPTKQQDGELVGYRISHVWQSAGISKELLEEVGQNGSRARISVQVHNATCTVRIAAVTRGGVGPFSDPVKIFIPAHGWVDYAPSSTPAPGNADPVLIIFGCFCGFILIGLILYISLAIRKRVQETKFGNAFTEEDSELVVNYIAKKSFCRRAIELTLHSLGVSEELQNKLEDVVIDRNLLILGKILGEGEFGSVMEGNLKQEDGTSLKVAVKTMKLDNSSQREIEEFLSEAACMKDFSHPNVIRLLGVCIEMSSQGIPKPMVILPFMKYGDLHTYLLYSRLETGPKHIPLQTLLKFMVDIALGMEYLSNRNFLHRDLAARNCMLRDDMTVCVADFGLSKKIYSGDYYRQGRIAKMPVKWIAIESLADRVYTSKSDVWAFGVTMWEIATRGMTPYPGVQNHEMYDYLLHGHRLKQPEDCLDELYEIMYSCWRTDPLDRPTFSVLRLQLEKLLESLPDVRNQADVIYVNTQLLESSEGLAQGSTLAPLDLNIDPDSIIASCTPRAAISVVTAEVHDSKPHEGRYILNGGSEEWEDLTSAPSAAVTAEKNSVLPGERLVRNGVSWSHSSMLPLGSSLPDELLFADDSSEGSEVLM

For `COc1cc2nccc(Oc3ccc(NC(=O)c4cn(N=C(N(C)C)N(C)C)cc(-c5ccc(F)cc5)c4=O)cc3F)c2nc1OC` [Compound 137, 1-[bis(Dimethylamino)methylideneamino]-N-[4-[(6,7-dimethoxy-1,5-naphthyridin-4-yl)oxy]-3-fluorophenyl]-5-(4-fluorophenyl)-4-oxopyridine-3-carboxamide], the IC50 in assay [1] (setting [5]) was less than 100 nM; in assay [2] (setting [6]), less than 100 nM; in assay [3] (setting [7]) it was less than 100 nM; in assay [4] (setting [8]) it was 100 to 300 nM.
For `CNC(=O)c1cc2c(Oc3ccc(NC(=O)c4cnc(C)c(-c5ccc(F)cc5)c4O)cc3)ccnc2cc1OC` [Compound 540, 4-[4-[[5-(4-fluorophenyl)-4-hydroxy-6-methylpyridine-3-carbonyl]amino]phenoxy]-7-methoxy-N-methylquinoline-6-carboxamide], the IC50 in assay [1] (protocol of Example D-2) was less than 100 nM; in assay [2] (setting [6]), 100 to 300 nM; in assay [3] (setting [7]) it was less than 100 nM; in assay [4] (setting [8]) it was less than 100 nM.
On to `COc1nc2c(Oc3ccc(NC(=O)c4cnc(C)c(-c5ccc(F)cc5)c4O)cc3F)ccnc2cc1-c1cnn(C(F)F)c1` [Compound 607, N-[4-[[7-[1-(Difluoromethyl)pyrazol-4-yl]-6-methoxy-1,5-naphthyridin-4-yl]oxy]-3-fluorophenyl]-5-(4-fluorophenyl)-4-hydroxy-6-methylpyridine-3-carboxamide], for which the IC50 in assay [1] (protocol of Example D-2), in assay [2] (setting [6]), in assay [3] (setting [7]) and in assay [4] (setting [8]) was less than 100 nM each time.
For `COc1cc2nccc(Oc3ccc(NC(=O)c4cn(C5CN(C(=O)OC(C)(C)C)C5)cc(-c5ccc(F)cc5)c4=O)cc3F)c2nc1OC` [Compound 114, tert-Butyl 3-[3-[[4-[(6,7-dimethoxy-1,5-naphthyridin-4-yl)oxy]-3-fluorophenyl]carbamoyl]-5-(4-fluorophenyl)-4-oxopyridin-1-yl]azetidine-1-carboxylate], the IC50 in assay [1] (setting [5]) was less than 100 nM.
On to `COc1cc2nccc(Oc3ccc(NC(=O)c4cn(CC(F)(F)F)cc(-c5ccc(F)cc5)c4=O)cc3F)c2nc1OC` [Compound 49, N-[4-[(6,7-Dimethoxy-1,5-naphthyridin-4-yl)oxy]-3-fluorophenyl]-5-(4-fluorophenyl)-4-oxo-1-(2,2,2-trifluoroethyl)pyridine-3-carboxamide], for which the IC50 in assay [1] (setting [5]) was less than 100 nM; in assay [2] (setting [6]) it was less than 100 nM; in assay [3] (setting [7]), less than 100 nM; in assay [4] (setting [8]), greater than 300 nM.
As for `COc1cc2nccc(Oc3ccc(NC(=O)c4cn(O)cc(-c5ccc(F)cc5)c4=O)cc3F)c2nc1OC` [Compound 134, N-[4-[(6,7-Dimethoxy-1,5-naphthyridin-4-yl)oxy]-3-fluorophenyl]-5-(4-fluorophenyl)-1-hydroxy-4-oxopyridine-3-carboxamide], the IC50 is less than 100 nM in assay [1] (setting [5]), greater than 300 nM in assay [2] (setting [6]), 100 to 300 nM in assay [3] (setting [7]) and less than 100 nM in assay [4] (setting [8]).
Turning to `COc1cnc2c(Oc3ccc(NC(=O)c4c(C)nc(C)c(-c5ccc(F)cc5)c4O)cc3)ccnc2c1` [Compound 158, 5-(4-Fluorophenyl)-4-hydroxy-N-[4-[(7-methoxy-1,5-naphthyridin-4-yl)oxy]phenyl]-2,6-dimethylpyridine-3-carboxamide], the IC50 in assay [1] (setting [5]), in assay [2] (setting [6]), in assay [3] (setting [7]) and in assay [4] (setting [8]) was less than 100 nM in each case.
In the case of `COc1cnc2c(Oc3cc(F)c(NC(=O)c4c(C)nc(C)c(-c5ccc(F)cc5F)c4O)cc3F)ccnc2c1` [Compound 779, N-[2,5-difluoro-4-[(7-methoxy-1,5-naphthyridin-4-yl)oxy]phenyl]-5-(2,4-difluorophenyl)-4-hydroxy-2,6-dimethylpyridine-3-carboxamide], the IC50 in assay [2] (setting [6]), in assay [3] (setting [7]) and in assay [4] (setting [8]) was less than 100 nM throughout.
As for `COc1cnc2c(Oc3ccc(NC(=O)c4cn(C(C)C)cc(-c5ccc(F)cc5)c4=O)cc3)ccnc2c1` [Compound 145, 5-(4-Fluorophenyl)-N-[4-[(7-methoxy-1,5-naphthyridin-4-yl)oxy]phenyl]-4-oxo-1-propan-2-ylpyridine-3-carboxamide], the IC50 in assay [1] (setting [5]), in assay [2] (setting [6]) and in assay [3] (setting [7]) was less than 100 nM each time.
On to `COc1cc2nccc(Oc3ccc(NC(=O)c4c(C)n(C)c(C)c(-c5ccc(F)c(F)c5)c4=O)cc3F)c2nc1OC` [Compound 822, 5-(3,4-difluorophenyl)-N-[4-[(6,7-dimethoxy-1,5-naphthyridin-4-yl)oxy]-3-fluorophenyl]-1,2,6-trimethyl-4-oxopyridine-3-carboxamide], for which the IC50 in assay [2] (PC-3 cells) was less than 100 nM; in assay [3] (transfected 293A cells) it was less than 100 nM; in assay [4] (HUVEC cells), greater than 300 nM.
As for `COc1cnc2c(Oc3ccc(NC(=O)c4cnc(C)c(-c5ccc(C(C)C)cc5)c4O)cc3F)ccnc2c1` [Compound 705, N-[3-fluoro-4-[(7-methoxy-1,5-naphthyridin-4-yl)oxy]phenyl]-4-hydroxy-6-methyl-5-(4-propan-2-ylphenyl)pyridine-3-carboxamide], the IC50 in assay [2] (setting [6]) was less than 100 nM; in assay [3] (setting [7]), less than 100 nM; in assay [4] (setting [8]), greater than 300 nM.
In the case of `COc1cc2nccc(Oc3ccc(NC(=O)c4c(C)n(C)c(C)c(-c5ccc(F)cc5F)c4=O)cc3F)c2nc1OC` [Compound 823, 5-(2,4-difluorophenyl)-N-[4-[(6,7-dimethoxy-1,5-naphthyridin-4-yl)oxy]-3-fluorophenyl]-1,2,6-trimethyl-4-oxopyridine-3-carboxamide], the IC50 is less than 100 nM in assay [2] (PC-3 cells), less than 100 nM in assay [3] (transfected 293A cells) and greater than 300 nM in assay [4] (HUVEC cells).
With `COc1cc2nccc(Oc3ccc(NC(=O)c4c(C)nc(C)c(-c5ccc(F)c(C)c5)c4O)cc3F)c2nc1OC` [Compound 710, N-[4-[(6,7-dimethoxy-1,5-naphthyridin-4-yl)oxy]-3-fluorophenyl]-5-(4-fluoro-3-methylphenyl)-4-hydroxy-2,6-dimethylpyridine-3-carboxamide], the IC50 in assay [2] (setting [6]), in assay [3] (setting [7]) and in assay [4] (setting [8]) was less than 100 nM in each case.
With `COc1cnc2c(Oc3ccc(NC(=O)c4cnc(C)c(-c5ccc(F)cc5OC)c4O)cc3F)ccnc2c1` [Compound 707, N-[3-fluoro-4-[(7-methoxy-1,5-naphthyridin-4-yl)oxy]phenyl]-5-(4-fluoro-2-methoxyphenyl)-4-hydroxy-6-methylpyridine-3-carboxamide], the IC50 in assay [2] (setting [6]), in assay [3] (setting [7]) and in assay [4] (setting [8]) was less than 100 nM in each case.
On to `COc1cnc2c(Oc3c(F)cc(NC(=O)c4c(C)nc(C)c(-c5ccc(F)cc5C)c4O)c(F)c3F)ccnc2c1` [Compound 768, 5-(4-fluoro-2-methylphenyl)-4-hydroxy-2,6-dimethyl-N-[2,3,5-trifluoro-4-[(7-methoxy-1,5-naphthyridin-4-yl)oxy]phenyl]pyridine-3-carboxamide], for which the IC50 in assay [2] (setting [6]), in assay [3] (setting [7]) and in assay [4] (setting [8]) was less than 100 nM throughout.
For the compound `CCOCc1nc(C)c(-c2ccc(F)cc2C)c(O)c1C(=O)Nc1ccc(Oc2ccnc3cc(OC)cnc23)cc1` [Compound 781, 2-(ethoxymethyl)-5-(4-fluoro-2-methylphenyl)-4-hydroxy-N-[4-[(7-methoxy-1,5-naphthyridin-4-yl)oxy]phenyl]-6-methylpyridine-3-carboxamide], the IC50 in assay [2] (setting [6]) is less than 100 nM; in assay [3] (setting [7]), less than 100 nM; in assay [4] (setting [8]) it was greater than 300 nM.
Take `COc1cnc2c(Oc3ccc(NC(=O)c4c(C)n(C)c(C)c(-c5ccc(F)c(F)c5)c4=O)cc3F)ccnc2c1` [Compound 820, 5-(3,4-difluorophenyl)-N-[3-fluoro-4-[(7-methoxy-1,5-naphthyridin-4-yl)oxy]phenyl]-1,2,6-trimethyl-4-oxopyridine-3-carboxamide]: the IC50 was less than 100 nM in assay [2] (PC-3 cells), less than 100 nM in assay [3] (transfected 293A cells) and greater than 300 nM in assay [4] (HUVEC cells).

As a reminder, the IC50 is the concentration that gives 50% inhibition.

Values taken from patent US12371428B2 (Exelixis, Inc., priority 2019, dated 2025).
